The target of data set [1] is IBV-CoV 3CL^pro (Avian infectious bronchitis virus, UniProt P0C6Y1). The data set is described as follows: biochemical. The settings on record: for Initial Velocity: triplicate, listed as Compound F2.
The nature of data set [2]: Rat 4-day continuous intravenous infusion exploratory non-GLP toxicity study.

These results are taken from paper PMC8523698, “Preclinical characterization of an intravenous coronavirus 3CL protease inhibitor for the potential treatment of COVID19” (Nature Communications, 2021).

Each structure is given as a SMILES string. Values joined by “and” are separate entries in the source; they are usually repeats but may differ in a detail not shown here. Equal values may be shown once.

Sequence of IBV-CoV 3CL^pro (P0C6Y1 2780-3086): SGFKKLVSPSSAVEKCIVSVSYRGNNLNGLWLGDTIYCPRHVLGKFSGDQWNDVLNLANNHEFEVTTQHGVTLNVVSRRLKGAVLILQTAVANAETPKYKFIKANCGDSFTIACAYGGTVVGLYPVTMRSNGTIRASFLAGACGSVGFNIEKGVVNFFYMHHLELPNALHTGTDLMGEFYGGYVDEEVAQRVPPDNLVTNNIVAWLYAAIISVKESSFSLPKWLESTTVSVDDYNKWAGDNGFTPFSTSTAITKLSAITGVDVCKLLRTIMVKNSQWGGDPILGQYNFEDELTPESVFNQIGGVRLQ

In data set [1], `COc1cccc2[nH]c(C(=O)N[C@@H](CC(C)C)C(=O)N[C@@H](C[C@@H]3CCNC3=O)C(=O)CO)cc12` [PF-00835231] displayed a Ki of 4 ± 0.37 nM. Moreover, the “Initial Velocity” value in data set [1] ([Compound F2] 1.95312 nM) was 0.9151 and 0.9223 and 0.9303; in data set [1] ([Compound F2] 3.90625 nM), 0.8719 and 0.9093 and 0.9026; in data set [1] ([Compound F2] 7.8125 nM), 0.7237 and 0.7704 and 0.7494; in data set [1] ([Compound F2] 31.25 nM), 0.2801 and 0.2824 and 0.2905; in data set [1] ([Compound F2] 62.5 nM) it was 0.09406 and 0.0968 and 0.1078; in data set [1] ([Compound F2] 250 nM), 0.02135 and 0.01561 and 0.01396. Further, the “tolerated dose (highest feasible dose tested)” value in data set [2] (male rats, 4 days continuous IV infusion) was found to be 246 mg/kg/day. In addition, the cholesterol vs controls in data set [2] (non-adverse) was 1.3 x. The “mean triglycerides vs controls” value in data set [2] (non-adverse) is 1.9-3.6 x. The phosphorus vs controls in data set [2] (non-adverse) was 1.1 x.
